Results on 3 molecules are retold here after ChEMBL document CHEMBL4813934, “Investigation of Selected Flavonoid Derivatives as Potent FLT3 Inhibitors for the Potential Treatment of Acute Myeloid Leukemia” (J Nat Prod, 2021).

Each structure is given as a SMILES string. A value given as a limit tells only on which side of the number the result lay.

For experiment [1], the target named is Receptor-type tyrosine-protein kinase FLT3 (Homo sapiens) (UniProt P36888). The experiment in a line: Inhibition of recombinant His-tagged human FLT3 (564 to 958 residues) expressed in baculovirus expression system at 10 uM using tyr 02 as substrate incubated for 1 hr by Z'-LYTE assay relative to control.
Experiment [2] addresses T1, Receptor-type tyrosine-protein kinase FLT3 (Homo sapiens, UniProt P36888).
T1 sequence (P36888 whole entry): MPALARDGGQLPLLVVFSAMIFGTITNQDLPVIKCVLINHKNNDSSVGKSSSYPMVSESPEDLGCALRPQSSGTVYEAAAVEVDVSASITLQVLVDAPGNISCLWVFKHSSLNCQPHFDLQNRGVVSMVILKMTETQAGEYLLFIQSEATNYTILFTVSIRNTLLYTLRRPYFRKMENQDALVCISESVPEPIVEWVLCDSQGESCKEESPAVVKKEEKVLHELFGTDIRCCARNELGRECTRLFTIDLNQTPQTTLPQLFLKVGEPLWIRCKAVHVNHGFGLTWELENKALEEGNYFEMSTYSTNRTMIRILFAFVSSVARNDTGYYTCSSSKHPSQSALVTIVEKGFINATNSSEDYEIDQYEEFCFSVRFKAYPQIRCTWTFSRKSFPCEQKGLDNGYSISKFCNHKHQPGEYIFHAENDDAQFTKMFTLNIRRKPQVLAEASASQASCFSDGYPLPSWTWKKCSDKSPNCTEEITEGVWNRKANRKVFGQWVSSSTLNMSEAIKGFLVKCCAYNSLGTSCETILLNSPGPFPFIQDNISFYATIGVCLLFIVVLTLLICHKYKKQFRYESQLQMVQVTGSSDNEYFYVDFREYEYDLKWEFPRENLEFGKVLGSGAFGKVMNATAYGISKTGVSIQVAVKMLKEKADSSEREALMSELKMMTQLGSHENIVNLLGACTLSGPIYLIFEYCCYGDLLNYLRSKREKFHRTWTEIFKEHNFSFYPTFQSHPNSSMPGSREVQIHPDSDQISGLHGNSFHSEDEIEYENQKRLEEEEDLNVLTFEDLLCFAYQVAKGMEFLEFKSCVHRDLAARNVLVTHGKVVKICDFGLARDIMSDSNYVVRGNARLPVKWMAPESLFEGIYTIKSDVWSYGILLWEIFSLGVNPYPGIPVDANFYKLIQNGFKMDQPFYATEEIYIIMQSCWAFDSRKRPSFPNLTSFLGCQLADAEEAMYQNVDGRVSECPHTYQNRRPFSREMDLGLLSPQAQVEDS
The experiment in a line: Inhibition of recombinant His-tagged human FLT3 (564 to 958 residues) expressed in baculovirus expression system using tyr 02 as substrate incubated for 1 hr by Z'-LYTE assay.

Another experiment has as its system MOLM-13. Put plainly: Cytotoxicity against human MOLM-13 cells assessed as reduction in cell viability measured after 72 hrs by MTT assay. Particulars: MOLM-13, 72 h. The format is functional, cell-based. In general terms: Formazan colour is commonly taken as a measure of viable cells.
In another experiment the test system is MV4-11. The experiment in a line: Cytotoxicity against human MV4-11 cells assessed as reduction in cell viability measured after 72 hrs by MTT assay. The format is functional, cell-based. Particulars: MV4-11, 72 h.
Experiment [3] addresses Receptor-type tyrosine-protein kinase FLT3 (Homo sapiens, UniProt P36888, ITD). Put plainly: Inhibition of recombinant N-terminal GST/His6-tagged human FLT3 ITD mutant (571 to 993 residues) expressed in Sf9 insect cells incubated for 1 hr by LanthaScreen assay.
Experiment [4] concerns the target Receptor-type tyrosine-protein kinase FLT3 (Homo sapiens, UniProt P36888, D835Y). Put plainly: Inhibition of recombinant His-tagged human FLT3 D835Y mutant (564 to 958 residues) expressed in baculovirus expression system using tyr 02 as substrate incubated for 1 hr by Z'-LYTE assay.

One may read the inhibition as the change of the read-out against control, counted positive when it falls. The IC50 is the concentration at which inhibition is half-maximal. Consider `COc1cc(O)c2c(=O)cc(-c3ccc(O)cc3)oc2c1` [GENKWANIN], for which the inhibition in experiment [1] was greater than 80%. Moreover, the IC50 in experiment [2] is 1700 nM.

On to `COc1ccc(-c2cc(=O)c3c(O)c(OC)c(OC)cc3o2)cc1O` [EUPATORIN], for which, in experiment [1], the inhibition was greater than 80%. Also, in experiment [2], the half-inhibitory concentration (IC50) amounted to 1100 nM.

For `COc1ccc(-c2cc(=O)c3c(O)cc(O)cc3o2)cc1` [ACACETIN], in experiment [1], the inhibition is greater than 80%. Further, the IC50 with MOLM-13 came to 9100 nM; in the experiment on MV4-11, 6800 nM; in experiment [2], 880 nM; in experiment [3] it was 210 nM; in experiment [4], 1000 nM.
